Source: US20240366842A1, “DECELLULARIZED TISSUE HYDROGELS” (THE UNIVERSITY OF NOTTINGHAM, priority 2021, published 2024)

Experiments:
[1] = system: SH-SY5Y (human neuroblastoma cell line); assay: LDH cytotoxicity assay, indirect (extract) testing; assay type: cell-based; conditions: media conditioned 72 hours, cells exposed 24 hours, 1 mM in 5% v/v DMSO, 10 mM in 10% v/v DMSO
Experimental: (§1) The cytotoxicity of PA crosslinked decellularized tissue hydrogels was assessed by an LDH assay in which hydrogels were incubated with SH-SY5Y (human neuroblastoma cell line).
(§2) Crosslinkers tested were: • PA [publicly available food supplement] • Purified oligomeric PA (OPA) [reference standard quality] • GA • GP
(§3) These were all tested in 1 and 10 mM concentrations, with the 1 mM in a solution containing 5% v/v of DMSO, and the 10 mM in a solution containing 10% v/v DMSO.
(§4) The LDH assay quantifies how many cells have died by quantifying the level of lactate that is present in the culture medium which will have been released upon cell membrane disruption during their death. The assay contains […] releases NADH which in turn can react with the dye present in the assay solutions to produce a colorimetric change. This change can be read through absorbance on a microplate spectrophotometer.
(§5) All results for the LDH have been calculated to % cytotoxicity as per the following formula recommended by the manufacturer: […]
Gels were made and crosslinked as per normal procedure and immersed in culture media for 72 hours conditioning. The conditioned culture media was then filtered and placed onto cells for a period of 24 hours. Following exposure to the conditioned media, a sample of the media was removed for testing through LDH.

[2] = system: SH-SY5Y (human neuroblastoma cell line); assay: LDH cytotoxicity assay, direct testing; assay type: cell-based; conditions: gel in contact with cell monolayer 24 hours, 1 mM in 5% v/v DMSO, 10 mM in 10% v/v DMSO
Experimental: as §1, §2, §3, §4, §5
Gels were made and crosslinked as per normal procedure and immersed in Hanks balanced salt solution (HBSS) containing 1% v/v of antibiotics and antimycotics overnight. The gels were then removed and immersed into culture media for 2 hours before placing on top of the cell monolayer and ensuring direct contact. […]

## Triton-X-100 [5% Triton]
[1]
  LDH (% cytotoxicity relative to Triton): 100%
[2]
  LDH (% cytotoxicity relative to Triton): 100%
